Results on 23 compounds are retold here after US6423716B1, “Nitrogenous heterocyclic compounds” (Kyowa Hakko Kogyo Co., Ltd., priority 1998, dated 2002).

The first data set deals with T1, human β-PDGF receptor (Homo sapiens, UniProt P09619).
T1 construct: expressed in transfected cells; host or cells: Chinese hamster ovary (CHO) cells
T1 sequence (P09619 33-1106): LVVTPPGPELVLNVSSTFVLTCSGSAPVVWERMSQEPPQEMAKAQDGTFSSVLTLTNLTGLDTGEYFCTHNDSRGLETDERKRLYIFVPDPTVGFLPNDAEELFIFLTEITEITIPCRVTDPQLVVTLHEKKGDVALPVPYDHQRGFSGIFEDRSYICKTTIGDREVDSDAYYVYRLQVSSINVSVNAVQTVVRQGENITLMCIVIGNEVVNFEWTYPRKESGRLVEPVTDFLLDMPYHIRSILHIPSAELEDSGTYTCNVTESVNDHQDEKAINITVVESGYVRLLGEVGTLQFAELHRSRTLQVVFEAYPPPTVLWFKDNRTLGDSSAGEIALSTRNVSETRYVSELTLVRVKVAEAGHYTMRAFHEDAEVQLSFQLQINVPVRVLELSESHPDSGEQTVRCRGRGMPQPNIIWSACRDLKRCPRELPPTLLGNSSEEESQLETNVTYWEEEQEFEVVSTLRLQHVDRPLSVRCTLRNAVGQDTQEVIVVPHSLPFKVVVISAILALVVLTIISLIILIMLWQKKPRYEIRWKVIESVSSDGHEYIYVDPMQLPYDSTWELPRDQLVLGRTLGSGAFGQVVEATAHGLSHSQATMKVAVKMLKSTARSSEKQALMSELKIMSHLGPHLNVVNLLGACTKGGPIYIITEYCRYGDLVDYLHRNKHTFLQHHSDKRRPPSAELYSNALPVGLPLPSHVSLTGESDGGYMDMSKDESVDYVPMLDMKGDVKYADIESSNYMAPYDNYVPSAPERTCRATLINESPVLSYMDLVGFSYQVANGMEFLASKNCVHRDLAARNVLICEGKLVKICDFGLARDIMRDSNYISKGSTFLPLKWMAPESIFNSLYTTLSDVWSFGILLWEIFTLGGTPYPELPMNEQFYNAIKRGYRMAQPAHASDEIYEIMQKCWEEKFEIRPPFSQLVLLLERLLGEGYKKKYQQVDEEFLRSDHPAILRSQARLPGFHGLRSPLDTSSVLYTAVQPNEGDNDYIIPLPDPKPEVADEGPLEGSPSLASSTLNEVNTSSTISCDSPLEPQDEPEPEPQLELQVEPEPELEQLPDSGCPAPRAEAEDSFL
Description: PDGF receptor phosphorylation inhibition test. The data set is classed as cell-based. The note with it: CHO cells expressing human β-PDGF receptor cDNA; concentration inhibiting 50% of PDGF receptor phosphorylation. The protocol: PDGF Receptor Phosphorylation Inhibition Test
This test was carried out according to the process disclosed in a literature [J. Biol. Chem., 266: 413-418 (1991)]. In this case, Chinese hamster ovary (CHO) cells to which human β-PDGF receptor cDNA had been inserted and in which it had been expressed were used in the test.
On to `COc1cc2ncnc(N3CCN(C(=NC#N)NCc4ccc(Cl)cc4)CC3)c2cc1OC` [Compound 31, N-(4-Chlorobenzyl)-N′-cyano-4-(6,7-dimethoxy-4-quinazolinyl)-1-piperazinecarboxamidine], for which the IC50 was found to be 0.38 µM.
As to `COc1cc2ncnc(N3CCN(C(=NC#N)NCc4ccc5c(c4)OCO5)CC3)c2cc1OC` [Compound 41, N′-Cyano-4-(6,7-dimethoxy-4-quinazolinyl)-N-(3,4-methylenedioxybenzyl)-1-piperazinecarboxamidine], it took 0.19 µM to reach half-maximal inhibition (IC50).

The data set is the same for the next values; noted with them: CHO cells expressing human β-PDGF receptor; test compound at 10 μM.
Regarding `O=C(Nc1ccc(Oc2ccccc2)cc1)N1CCN(c2ncnc3cnc(F)cc23)CC1` [Compound 22, N-(4-Phenoxyphenyl)-4-(6-fluoro-4-pyrido[3,4-d]pyrimidinyl)-1-piperazinecarboxamide], at 10 µM the inhibition was 66%.
As to `COc1cc2ncnc(N3CCN(C(NCc4cccc(Cl)c4)=C(C#N)C#N)CC3)c2cc1OC` [Compound 51, 4-{4-[1-(3-Chlorobenzylamino)-2,2-dicyanovinyl]-1-piperazinyl}-6,7-dimethoxyquinazoline], testing at 10 µM gave an inhibition of 82%.
The same measure, in the same setting: as for `COc1ccc(CNC(=C(C#N)C#N)N2CCN(c3ncnc4cc(OC)c(OC)cc34)CC2)cc1` [Compound 53, 4-{4-[2,2-Dicyano-1-(4-methoxybenzylamino)vinyl]-1-piperazinyl}-6,7-dimethoxyquinazoline], the figure is 87%; as for `COc1cc2ncnc(N3CCN(C(SC)=C(C#N)C#N)CC3)c2cc1OC` [Compound 64, 4-[4-(2,2-Dicyano-1-methylthiovinyl)-1-piperazinyl]-6,7-dimethoxyquinazoline], 82%; as for `COc1cc2ncnc(N3CCN(C(=NC#N)Oc4ccccc4)CC3)c2cc1OC` [Compound 67, N-Cyano-4-(6,7-dimethoxy-4-quinazolinyl)-1-piperazinecarboximidic acid phenyl ester], 95%.

Tested on in a further data set: not given
Test: not given
Conditions: not given
As for `Cn1ncc2c(N3CCN(C(=O)Nc4ccc(Oc5ccccc5)cc4)CC3)ncnc21`, the melting point is 155 to 156 °C.
On the same count and under the same terms, as for `Cn1ncc2c(N3CCN(C(=S)NCc4cccnc4)CC3)ncnc21`, the figure is 210 to 211 °C; as for `Cn1ncc2c(N3CCN(C(=S)NCc4ccccc4)CC3)ncnc21`, 175 to 176 °C; as for `Cl.Cl.S=C(NCc1cccnc1)N1CCN(c2ncnc3c2cnn3-c2ccccc2)CC1`, 160 to 163 °C.
`O=C(Nc1ccc([N+](=O)[O-])cc1)N1CCN(c2ncnc3nc[nH]c23)CC1`: the melting point was 270 to 275 °C (dec.).
In turn, `Cl.Cl.S=C(NCc1cccnc1)N1CCN(c2ncnc3nc[nH]c23)CC1` gave a melting point of 178 to 185 °C.
`Nc1nc(N2CCN(C(=O)Nc3ccc([N+](=O)[O-])cc3)CC2)c2[nH]cnc2n1` had a melting point of 208 to 214 °C.
As to `Cl.Cl.Nc1nc(N2CCN(C(=S)NCc3cccnc3)CC2)c2[nH]cnc2n1`, the melting point was 180 to 185 °C (dec.).
For `Cn1cnc2c(N3CCN(C(=O)Nc4ccc(Oc5ccccc5)cc4)CC3)ncnc21`, the melting point was 168 to 169 °C.
`O=C(Nc1ccc(Oc2ccccc2)cc1)N1CCN(c2ncnc3nc[nH]c23)CC1` [Compound 1, N-(4-Phenoxyphenyl)-4-(6-purinyl)-1-piperazinecarboxamide] yielded a melting point of 250 to 251 °C.
The same measure, in the same setting: as for `S=C(NCc1ccccc1)N1CCN(c2ncnc3nc[nH]c23)CC1` [Compound 3, N-Benzyl-4-(6-purinyl)-1-piperazinethiocarboxamide], the figure is 255 to 260 °C; as for `Nc1nc(N2CCN(C(=O)Nc3ccc(Oc4ccccc4)cc3)CC2)c2[nH]cnc2n1` [Compound 5, 4-(2-Amino-6-purinyl)-N-(4-phenoxyphenyl)-1-piperazinecarboxamide], 244 to 258 °C; as for `Nc1nc(N2CCN(C(=S)NCc3ccccc3)CC2)c2[nH]cnc2n1` [Compound 7, 4-(2-Amino-6-purinyl)-N-benzyl-1-piperazinethiocarboxamide], 242 to 245 °C.
On the same count and under the same terms, to `Cc1nn(C)c2ncc(C(N)=O)c(N3CCN(C(=O)Nc4ccc(Oc5ccccc5)cc4)CC3)c12` [Compound 12, 4-(5-Carbamoyl-1,3-dimethyl-4-1H-pyrazolo[3,4-b]pyridyl)-N-(4-phenoxyphenyl)-1-piperazinecarboxamide] belongs 248 to 250 °C; to `O=C(Nc1ccc(Oc2ccccc2)cc1)N1CCN(c2ncnc3ncccc23)CC1` [Compound 20, N-(4-Phenoxyphenyl)-4-(4-pyrido[2,3-d]pyrimidinyl)-1-piperazinecarboxamide], 104 to 106 °C; to `S=C(NCc1ccccc1)N1CCN(c2ncnc3ncccc23)CC1` [Compound 21, N-Benzyl-4-(4-pyrido[2,3-d]pyrimidinyl)-1-piperazinethiocarboxamide], 169 to 170 °C.

The IC50 is the concentration at which inhibition is half-maximal. A high value points to lower potency. One may read the inhibition as the drop in the measured response relative to a control, in per cent. Lower therefore signals a weak effect. The term melting point denotes the temperature, or range, at which the solid turns liquid.
